Test results from patent US20110178105A1, “CLINICAL BENEFITS OF EICOSAPENTAENOIC ACID IN HUMANS” (E.I. DU PONT DE NEMOURS AND COMPANY, priority 2010, published 2011).
Where two headings read alike, the source gives them in different places.

What was measured:
[1] = Clinical study: fasting insulin and glucose; assay type: in vivo, human; details: 6 weeks
Description: Standard chemistry tests were carried at all visits (screening, enrollment, and final study visit after an overnight fast by Quest Laboratories, Cambridge, Mass.): blood urea nitrogen, creatinine, calculated glomerular filtration rate, sodium, potassium, chloride, carbon dioxide, calcium, total protein, albumin, globulin, total bilirubin, alkaline phosphatase, liver transaminases AST and ALT, and glucose. A complete blood count was also performed at all visits and included: hemoglobin, hematocrit, red blood cell count, platelet count, white blood cell count and a white blood cell count differential. Additional tests included: prothrombin time, and measurement of thyroid function including T3, T4 and T3 uptake. All subjects entering the study were required to have: liver function tests (i.e., transaminases) of less than 3 times the upper limits of normal; bilirubin and alkaline phosphatase values in the normal range; serum creatinine levels of less than 2.5 mg/dl; hemoglobin levels over 11 g/dl; a normal prothrombin time; a fasting blood glucose below 200 mg/dl; and, a blood pressure below 170/110 mmHg. All subjects who qualified for the study and met all the screening and laboratory entry criteria were scheduled for an enrollment visit within one month of screening.
At visit 2, subjects were again asked to fast for 12 hours, and information about subject characteristics including all vital signs, recent illness or hospitalization, medication and supplement use, and diet information was again obtained. […] At one week and three weeks after beginning the supplements, all study subjects were contacted by telephone and asked about any adverse effects and about their compliance, and the information on their calendars with regard to capsule use and fish intake. They were also asked about whether they had experienced any fishy aftertaste or odor, and if so, how frequent were these episodes, and how unpleasant were they? The entire process as listed above was repeated after study subjects were on the study capsules for 6 weeks at the time of the final visit. Compliance and adverse events were assessed by telephone at weeks 1 and 3 by telephone and at week 6 by questionnaire and capsule count. Over 42 days, subjects were expected to have consumed a total of 252 capsules. Compliance was calculated as a percentage of consumed capsule count/expected capsule count based on the number of days the subject was in the study. All subjects were asked to stay on their capsules until they come in for their final visit. Compliance in all participants who completed the study was based on capsule count was in excess of 85%, mean 96%.
The following laboratory measurements were carried out on an automated analyzer (Roche Diagnostics, Indianapolis, Ind.) on samples obtained in the fasting state at the randomization visit, and the final visits using frozen aliquots of serum stored at −80 degrees Celsius: 1) total cholesterol; 2) triglycerides; 3) direct high density lipoprotein [“HDL”] cholesterol; 4) direct low density lipoprotein [“LDL”] cholesterol; 5) direct small dense LDL cholesterol; 6) apolipoprotein [“apo”] B; 7) apoA-I; 8) lipoprotein (a); 9) fibrinogen; 10) high sensitivity C reactive protein [“hs-CRP”]; 11) lipoprotein associated phospholipase A2 [“Lp-PLA2”]; and, 12) insulin as previously described. See, McNamara, J. R. and Schaefer, E. J., Clin. Chim. Acta, 166:1-8 (1987); Okada, M. et al., J. Lab. Clin. Med., 132:195-201 (1998); Hirano, T. et al., J. Lipid Res., 44:2193-2201 (2003); Ai, M. et al., Am. J. Cardiol., 101:315-318 (2008); Ingelsson, E. et al., JAMA, 298:776-785 (2007); Jenner, J. L. et al., Circulation, 87:1135-1141 (1993); Schaefer, E. J. et al., Am. J. Cardiol., 95:1025-1032 (2005); McNamara, J. R. et al., Atherosclerosis, 154:229-236 (2001).

[2] = set-up: reduction of events / relative risk reduction in stroke / reduction of risk of subsequent CHD events / relative risk reduction of major cardiovascular events: concentration or dose not given beside the values; details: cited from earlier work
[3] = EPA 1800 mg/day plus statin group (9,326), 4.6 years of follow-up

For `CCC=CCC=CCC=CCC=CCC=CC/C=C\CCC(=O)O` [DHA, cis-4,7, 10, 13, 16, 19-docosahexaenoic acid, reference compound], the “Insulin, 6-Week Change (%)” value ([1]; DHA 600 mg (n = 28), Fast) was “+26.7 ± 79.8%” and the Insulin, Final ([1]; DHA 600 mg (n = 28), Fast) was 8.4 ± 4.1 µIU/mL.

For `CCC=CCC=CCC=CCC=CC/C=C\CCCC(=O)O` [EPA, cis-5,8, 11, 14, 17-eicosapentaenoic acid], the triglyceride lowering ([2]; 1800 mg/day of EPA) is given as “no significant effect”, the “reduction of risk of subsequent CHD events” value ([2]; 1,050 subjects with prior myocardial infarction, EPA plus statin, p=0.033) is given as 27% and the “decrease in cardiovascular events” value ([2]; >98% purified EPA-ethyl esters plus statin versus statin alone) is given as 19%. For the same molecule, the “major cardiovascular event rate” value [2, 3] was 2.8%, the “major cardiovascular events observed” value [2, 3] was 262 events and the “sudden death rates between the groups” value ([2]; EPA plus statin versus statin-only) was “No significant differences”. For the same molecule, the “relative risk reduction of major cardiovascular events” value ([2]; EPA plus statin versus statin-only, p=0.011) was 19%, the “effects on lipid levels” value ([2]; EPA plus statin) was “not associated with any significant effects” and the reduction in stroke ([2]; entire cohort, EPA plus statin) was “not associated with a significant reduction”. For the same molecule, the stroke rate ([2]; entire cohort, EPA plus statin) was 1.3%, the risk reduction ([2]; impaired glucose tolerance (fasting glucose >110 mg/dl), EPA plus statin, p=0.048) was 22% and the risk reduction ([2]; normal glucose group, EPA plus statin, not significant) was 18%. The reduction of events ([2]; patients with a history of prior CHD, EPA plus statin versus statin-only, p=0.048) was 19%, the event rate ([2]; patients with a history of prior CHD, EPA plus statin) was 8.7% and the “number needed to treat” value ([2]; patients with a history of prior CHD) was 49. For the same molecule, the “rate of subsequent CHD events” value ([2]; subjects with prior myocardial infarction, EPA plus statin) was 15.0%, the “number needed to treat to prevent one event” value ([2]; subjects with prior myocardial infarction) was 19 and the stroke rate ([2]; subjects with prior stroke, EPA plus statin) was 6.8%. The “relative risk reduction in stroke” value ([2]; subjects with prior stroke, EPA plus statin, p<0.05) was 20%, the event rate ([2]; subjects without CHD, EPA plus statin) was 1.4% and the risk reduction ([2]; subjects without CHD, p 0.132 (not significant)) was 18%. For the same molecule, the “reduction of CHD events” value ([2]; triglyceride >150 mg/dl and HDL cholesterol <40 mg/dl, EPA plus statin, p=0.043) was 53%, the “Glucose, 6-Week Change (%)” value ([1]; EPA 600 mg (n = 27)) was “+1.3 ± 14.0%” and the “Glucose, Final” value ([1]; EPA 600 mg (n = 27)) was 92.1 ± 11.0 mg/dL. The “Insulin, 6-Week Change (%)” value ([1]; EPA 600 mg (n = 27)) was “+17.4 ± 70.6%”, the “Insulin, 6-Week Change (%)” value ([1]; EPA 600 mg (n = 27), Fast) was “+17.4 ± 70.6%” and the Insulin, Final ([1]; EPA 600 mg (n = 27), Fast) was 10.2 ± 7.9 µIU/mL.
